Each block holds one molecule with its values, some of them ahead of it.
Columns and labels:
[1] = THF extraction of unconcentrated or concentrated glucoamylase-treated glycosylation reaction solution; assay type: physicochemical; settings: for Extraction rate (%), THF phase total: three THF extractions, 30° C.
Protocol: Thereafter, glucoamylase treatment was performed at 45° C. for 4 hours, thereby obtaining a reaction solution. […] Extraction was conducted under a condition of 30° C. The mixture was allowed to stand for 1 hour. The mixture was separated into two phases. The upper THF phase was recovered. […] The obtained THF phases were combined together. Note that although an intermediate layer was generated in the concentrate during the phase separation, the intermediate layer was included in the aqueous phase.

[2] = THF extraction of glucoamylase (XL-4) treated glycosylation reaction solution; assay type: physicochemical; settings: 1 ml + 1 ml THF
Protocol: Thereafter, the mixture was incubated at 45° C. for 3 or 4 hours. After the incubation, the contents of glucose and maltose in the solution were confirmed by a HPLC analysis method. […] Glucose and maltose in the eluate were detected by a RI detector. […] After shaking, the mixture was allowed to stand for 1 hour. […] The aqueous phase was recovered. […] The amounts of glucose and maltose were measured by an HPLC analysis method using the aqueous phase. […] Glucose and maltose in the eluate were detected by a RI detector. […] Based on the obtained results and the above-described glucose concentration, maltose concentration and HQG concentration before extraction with THF, the extraction rate to the THF phase was calculated.

[3] = Influence of temperature on extraction to a tetrahydrofuran phase; assay type: physicochemical; settings: aqueous phase made up to 5 ml
Protocol: Thereafter, the mixture was incubated at 45° C. for 4 hours to obtain a post-glucoamylase treatment reaction solution. […] Thereafter, the mixture was centrifuged at 3000 rpm for 5 minutes. […] The aqueous phase was recovered.

[4] = Extraction from aqueous 30% glucose + 10% sodium chloride solution with acetone or isopropanol (absorbance at 280 nm of aqueous phase); assay type: physicochemical; settings: single extraction; for starting amount extracted in the acetone phase: 10 ml acetone + 10 ml aqueous solution containing 30% glucose and 10% sodium chloride; for starting amount extracted in the isopropanol phase: 10 ml isopropanol + 10 ml aqueous solution containing 30% glucose and 10% sodium chloride
Protocol: (§1) 1 g of a mixture of catechins (SUNPHENON®; manufactured by Taiyo Kagaku) was dissolved in 100 ml of an aqueous solution containing 30% glucose and 10% sodium chloride to obtain a sample aqueous solution. The absorbance at 280 nm of the sample aqueous solution was measured. […] Thereafter, the mixture was allowed to stand for 30 minutes. […] The lower phase (aqueous phase) was recovered, and the volume and the absorbance at 280 nm thereof were measured. The amount of the catechins extracted in the upper phase (polar organic solvent phase) was calculated from a reduction in the absorbance at 280 nm of the lower phase and the solution volume of the lower phase.
This additional extraction operation to Example 2a was conducted except for use of 10 ml of isopropanol instead of 10 ml of acetone.
as §1, with “hesperidin glycosides (Toyo Sugar Refining Co., Ltd.) were” for “a mixture of catechins (SUNPHENON®; manufactured by Taiyo Kagaku) was”, “hesperidin glycosides” for “the catechins”, “phase. […] Further, similar operations and measurements were performed twice more by adding 5 ml of acetone to the aqueous phase recovered after the acetone extraction.” for “phase.”
This additional extraction operation to Example 4a was conducted except for use of 10 ml of isopropanol instead of 10 ml of acetone.
as §1, with “salicin” for “a mixture of catechins (SUNPHENON®; manufactured by Taiyo Kagaku)”, “salicin” for “the catechins”
This additional extraction operation to Example 6a was conducted except for use of 10 ml of isopropanol instead of 10 ml of acetone.
as §1, with “caffeic acid” for “a mixture of catechins (SUNPHENON®; manufactured by Taiyo Kagaku)”, “caffeic acid” for “the catechins”
This additional extraction operation to Example 8a was conducted except for use of 10 ml of isopropanol instead of 10 ml of acetone.
as §1, with “0.1 g” for “1 g”, “of salicyl alcohol” for “of a mixture of catechins (SUNPHENON®; manufactured by Taiyo Kagaku)”, “of salicyl alcohol” for “of the catechins”
This additional extraction operation to Example 10a was conducted except for use of 10 ml of isopropanol instead of 10 ml of acetone.

[5] = Extraction from aqueous 30% glucose solution with tetrahydrofuran or acetonitrile (absorbance at 280 nm of aqueous phase); assay type: physicochemical; settings: single extraction; for starting amount extracted in the tetrahydrofuran phase: 10 ml THF + 10 ml aqueous solution containing 30% glucose; for starting amount extracted in the acetonitrile phase: 10 ml acetonitrile + 10 ml aqueous solution containing 30% glucose
Protocol: as §1, with “Kagaku Co., Ltd.)” for “Kagaku)”, “glucose” for “glucose and 10% sodium chloride”
This additional extraction operation to Example 1a was conducted except for use of 10 ml of acetonitrile instead of 10 ml of tetrahydrofuran.
as §1, with “hesperidin glycosides (manufactured” for “a mixture of catechins (SUNPHENON®; manufactured”, “Toyo Sugar Refining Co., Ltd.) were” for “Taiyo Kagaku) was”, “glucose” for “glucose and 10% sodium chloride”, “hesperidin glycosides” for “the catechins”, “phase. […] Further, similar operations and measurements were performed twice more by adding 5 ml of tetrahydrofuran to the aqueous phase recovered after the tetrahydrofuran extraction.” for “phase.”
This additional extraction operation to Example 3a was conducted except for use of 10 ml of acetonitrile instead of 10 ml of tetrahydrofuran.
as §1, with “salicin” for “a mixture of catechins (SUNPHENON®; manufactured by Taiyo Kagaku)”, “glucose” for “glucose and 10% sodium chloride”, “salicin” for “the catechins”
This additional extraction operation to Example 5a was conducted except for use of 10 ml of acetonitrile instead of 10 ml of tetrahydrofuran.
as §1, with “caffeic acid” for “a mixture of catechins (SUNPHENON®; manufactured by Taiyo Kagaku)”, “glucose” for “glucose and 10% sodium chloride”, “caffeic acid” for “the catechins”
This additional extraction operation to Example 7a was conducted except for use of 10 ml of acetonitrile instead of 10 ml of tetrahydrofuran.
as §1, with “salicyl alcohol” for “a mixture of catechins (SUNPHENON®; manufactured by Taiyo Kagaku)”, “glucose” for “glucose and 10% sodium chloride”, “salicyl alcohol” for “the catechins”
This additional extraction operation to Example 9a was conducted except for use of 10 ml of acetonitrile instead of 10 ml of tetrahydrofuran.

[6] = cited from earlier work
[7] = Acetone extraction of hesperidin from orange juice concentrate with sodium chloride (HPLC); assay type: physicochemical; settings: single extraction, orange juice five-fold concentrate + equal volume 15% sodium chloride solution
Protocol: 10 ml of 15% sodium chloride solution was added to 10 ml of California orange juice concentrate (five-fold concentrate), and stirred to homogeneity, thereby obtaining an aqueous solution. The amount of hesperidin in the California orange juice concentrate used was measured by HPLC using a column ODS, where the mobile phase was a mixture of acetonitrile and water at 20:80, the flow rate was 0.5 ml/min, and the column temperature was 40° C. The absorbance of the eluate was detected at 280 nm. A specific method of detecting the amount of hesperidin is described in Japanese Laid-Open Publication No. 8-80177. […] Thereafter, the mixture was allowed to stand for 30 minutes. […] The upper phase (polar organic solvent phase) was recovered, and the volume thereof was measured. The amount of hesperidin was measured by HPLC as described above. As a result, by a single extraction operation, 75% of hesperidin was extracted in the acetone phase.

[8] = unconcentrated amylase treatment reaction solution

SMILES: OC[C@H]1O[C@H](O[C@H]2[C@H](O)[C@@H](O)C(O)O[C@@H]2CO)[C@H](O)[C@@H](O)[C@@H]1O (mixture of isomers) [Maltose, maltose]
- Corrected concentration (equivalent in 5 ml) %, THF phase total ([1]; 70% concentrate): 0%
- Extraction rate (%), THF phase total ([1]; 70% concentrate): 0%
- Corrected concentration (equivalent in 5 ml) %, THF phase total ([1]; 80% concentrate): 0%
- Extraction rate (%), THF phase total ([1]; 80% concentrate): 0%
- Corrected concentration (equivalent in 5 ml) %, THF phase total [1, 8]: 0.1%
- Extraction rate (%), THF phase total [1, 8]: 3.2%
- Extraction rate to THF (%) ([2]; (XL-4) 1-fold glucoamylase treatment solution): 38.6%
- Extraction rate to THF (%) ([2]; (XL-4) 1.5-fold glucoamylase treatment solution): 33.0%
- Extraction rate to THF (%) ([2]; (XL-4) 2-fold glucoamylase treatment solution): 36.4%

SMILES: Oc1ccc(O)cc1 [HQ, hydroquinone]
- concentration of the aqueous phase after THF extraction ([3]; 3° C.): 0.9%
- concentration of the aqueous phase after THF extraction ([3]; 10° C.): 0.7%
- concentration of the aqueous phase after THF extraction ([3]; 20° C.): 1.0%
- concentration of the aqueous phase after THF extraction ([3]; 22° C.): 1.0%
- concentration of the aqueous phase after THF extraction ([3]; 30° C.): 1.0%
- concentration of the aqueous phase after THF extraction ([3]; 45° C.): 1.2%

SMILES: COc1ccc([C@@H]2CC(=O)c3c(O)cc(O[C@@H]4O[C@H](CO[C@@H]5O[C@@H](C)[C@H](O)[C@@H](O)[C@H]5O)[C@@H](O)[C@H](O)[C@H]4O)cc3O2)cc1O [hesperidin]
- solubility in acetone [6]: insoluble in acetone
- solubility in water [6]: poorly soluble in water
- hesperidin extracted in the acetone phase [7]: 75%

SMILES: C[C@@H]1O[C@@H](O[C@H]2[C@H](Oc3cc(O)c4c(c3)O[C@H](c3ccc(O)cc3)CC4=O)O[C@H](CO)[C@@H](O)[C@@H]2O)[C@H](O)[C@H](O)[C@H]1O [naringin]
- solubility in water [6]: poorly soluble in water

SMILES: COc1ccc([C@@H]2CC(=O)c3c(O)cc(O[C@@H]4O[C@H](CO)[C@@H](O)[C@H](O)[C@H]4O[C@@H]4O[C@@H](C)[C@H](O)[C@@H](O)[C@H]4O)cc3O2)cc1O [neohesperidin]
- solubility in water [6]: poorly soluble in water

SMILES: C[C@@H]1O[C@@H](OC[C@H]2O[C@@H](Oc3c(-c4ccc(O)c(O)c4)oc4cc(O)cc(O)c4c3=O)[C@H](O)[C@@H](O)[C@@H]2O)[C@H](O)[C@H](O)[C@H]1O [rutin]
- solubility in acetone [6]: insoluble in acetone
- solubility in water [6]: poorly soluble in water

Next, values leading:

- starting amount extracted in the acetone phase [4]: 78.2%
- starting amount extracted in the isopropanol phase [4]: 87.2%
- starting amount extracted in the tetrahydrofuran phase [5]: 88.6%
- starting amount extracted in the acetonitrile phase [5]: 76.2%
SMILES: O=C(O)/C=C/c1ccc(O)c(O)c1 [caffeic acid]

- starting amount extracted in the acetone phase [4]: 58.0%
- starting amount extracted in the isopropanol phase [4]: 97.0%
- starting amount extracted in the tetrahydrofuran phase [5]: 96.5%
- starting amount extracted in the acetonitrile phase [5]: 98.1%
SMILES: OCc1ccccc1O[C@@H]1O[C@H](CO)[C@@H](O)[C@H](O)[C@H]1O [salicin]

- starting amount extracted in the acetone phase [4]: 87.7%
- starting amount extracted in the isopropanol phase [4]: 98.7%
- starting amount extracted in the tetrahydrofuran phase [5]: 98.7%
- starting amount extracted in the acetonitrile phase [5]: 98.2%
SMILES: OCc1ccccc1O [salicyl alcohol]
